In patent publication US8314148B2, “Selective hydroxamate based MMP inhibitors” (Novartis AG, priority 2006, dated 2012) one finds melting point and IC50 data, which are given here for 16 compounds.

The target of one series is T1, MMP02 (Homo sapiens, UniProt P08253).
T1 sequence (P08253 110-660): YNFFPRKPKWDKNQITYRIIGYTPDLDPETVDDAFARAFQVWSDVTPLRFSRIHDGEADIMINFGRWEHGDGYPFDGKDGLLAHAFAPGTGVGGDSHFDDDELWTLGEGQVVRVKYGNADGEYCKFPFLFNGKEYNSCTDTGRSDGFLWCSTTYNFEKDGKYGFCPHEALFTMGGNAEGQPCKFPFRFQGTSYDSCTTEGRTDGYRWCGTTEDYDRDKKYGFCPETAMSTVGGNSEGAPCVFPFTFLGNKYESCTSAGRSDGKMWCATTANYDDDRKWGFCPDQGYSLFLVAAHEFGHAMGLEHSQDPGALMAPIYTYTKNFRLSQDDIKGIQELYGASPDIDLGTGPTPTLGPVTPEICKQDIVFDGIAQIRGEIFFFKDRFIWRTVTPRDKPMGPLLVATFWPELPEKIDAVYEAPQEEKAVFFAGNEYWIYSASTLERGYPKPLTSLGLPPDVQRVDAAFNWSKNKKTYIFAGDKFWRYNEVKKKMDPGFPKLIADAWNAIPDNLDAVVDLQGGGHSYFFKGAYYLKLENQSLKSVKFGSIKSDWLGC
Description: MMP assay, determination of IC50 (fluorescence). It is filed as biochemical. The note with it: human MMP 0.5 nM, substrate 5 μM, 1 hour preincubation, pH 7.5. How it is done:
(§1) The activities of a compound according to the present invention can be assessed by the following methods well-described in the art. Determination of IC50 values in MMP assays
(§2) Dose-response curves are prepared in DMSO/water solution (90/10, v/v) in 96-well plate format and stored at 4° C. up to 24 hours prior to analysis. In all steps poly-propylene pipette tips are changed avoiding cross-contamination or compound carry over. On the day of the assay, each compound is further diluted (1/33.33; 96-well plate format) in water containing 0.05% CHAPS to 3-times the desired assay concentration. In the assay for each compound, 11 concentrations ranging from 30 to 0.0003 μM are investigated (0.0003, 0.001, 0.003, 0.01, 0.03, 0.1, 0.3, 1, 3, 10, 30 μM). A three-fold concentrated MMP solution is prepared in two-fold concentrated assay buffer 100 mM Tris-HCl buffer, pH 7.5 containing 100 mM NaCl, 10 mM CaCl2, 10 μM ZnCl2, 0.05% Brij-35 and dispensed in 96-well Greiner plates. Similarly a three-fold concentrated substrate solution (15 μM) is prepared in 100 mM Tris-HCl buffer, pH 7.5 containing 100 mM NaCl, 10 mM CaCl2, 10 μM ZnCl2, 0.05% Brij-35 and dispensed in 96-well Greiner plates. Transfer of compounds, substrate and enzyme from 96-well plates to 384-well plates is made using either Cybi™well or Cybi™disk devices.
(§3) The assay procedure is the following, in each well, 10 μL water/CHAPS (±test compound) is added, followed by 10 μL human MMP solution (final assay concentration 0.5 nM). After 1 hour of incubation at room temperature the assay is started by addition of 10 μL substrate solution (final concentration 5 μM).
(§4) The reaction is allowed to proceed for 1 hours at ambient temperature (˜20-22° C.). At the end of the incubation the fluorescence is measured as described above.
(§5) The apparent inhibition constant, IC50, is determined from the plot of percentage of inhibition vs. inhibitor concentration using non-linear regression analysis software (XLfit, Vers. 3.0.5; ID Business Solution Ltd., Guildford, Surrey, UK).

The target in a further series is MMP09 (Homo sapiens, UniProt P14780). In words: MMP assay, determination of IC50 (fluorescence). The format is biochemical. The conditions noted are these: human MMP 0.5 nM, substrate 5 μM, 1 hour preincubation, pH 7.5. How it is done: as §1, §2, §3, §4, §5
In the next series the target is MMP12 (Homo sapiens, UniProt P39900). In words: MMP assay, determination of IC50 (fluorescence). It is filed as biochemical. The note with it: human MMP 0.5 nM, substrate 5 μM, 1 hour preincubation, pH 7.5. How it is done: as §1, §2, §3, §4, §5
In the next series the target is MMP13 (Homo sapiens, UniProt P45452). In words: MMP assay, determination of IC50 (fluorescence). The format is biochemical. The note with it: human MMP 0.5 nM, substrate 5 μM, 1 hour preincubation, pH 7.5. How it is done: as §1, §2, §3, §4, §5

Sequence of MMP12 (P39900 106-470): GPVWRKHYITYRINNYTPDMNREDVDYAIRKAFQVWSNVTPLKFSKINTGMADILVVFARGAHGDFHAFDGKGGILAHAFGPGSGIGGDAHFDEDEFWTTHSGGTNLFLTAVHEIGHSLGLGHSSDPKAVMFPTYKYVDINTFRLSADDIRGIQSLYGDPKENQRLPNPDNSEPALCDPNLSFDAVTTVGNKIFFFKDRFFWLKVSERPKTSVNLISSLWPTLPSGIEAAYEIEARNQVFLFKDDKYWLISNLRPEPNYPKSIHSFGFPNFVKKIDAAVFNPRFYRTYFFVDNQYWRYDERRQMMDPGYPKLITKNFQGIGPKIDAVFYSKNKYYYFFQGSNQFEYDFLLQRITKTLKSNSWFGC
Sequence of MMP09 (P14780 94-707): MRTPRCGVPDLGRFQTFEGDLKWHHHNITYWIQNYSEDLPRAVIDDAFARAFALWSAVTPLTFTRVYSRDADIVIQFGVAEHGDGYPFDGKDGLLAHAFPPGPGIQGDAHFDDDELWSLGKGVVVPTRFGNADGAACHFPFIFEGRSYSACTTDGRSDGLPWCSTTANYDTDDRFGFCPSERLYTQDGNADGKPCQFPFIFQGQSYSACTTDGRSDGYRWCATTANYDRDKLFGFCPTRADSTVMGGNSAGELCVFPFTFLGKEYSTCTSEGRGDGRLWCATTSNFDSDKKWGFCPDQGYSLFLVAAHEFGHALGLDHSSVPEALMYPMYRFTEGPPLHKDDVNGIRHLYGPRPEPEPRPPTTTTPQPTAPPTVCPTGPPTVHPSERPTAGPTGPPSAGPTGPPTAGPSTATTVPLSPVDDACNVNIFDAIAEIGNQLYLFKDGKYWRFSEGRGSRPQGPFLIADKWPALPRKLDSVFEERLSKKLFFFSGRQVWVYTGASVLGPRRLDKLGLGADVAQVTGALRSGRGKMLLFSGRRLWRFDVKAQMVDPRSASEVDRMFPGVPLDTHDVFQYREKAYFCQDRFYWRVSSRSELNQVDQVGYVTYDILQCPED

The compound `COc1cccc(S(=O)(=O)N(CCC(C)C)[C@@H](C(=O)NO)C(C)(C)C)c1` [Example 1, N-isoamyl-N-(3 Methoxyphenylsulfonyl)D-tert-leucine hydroxamic acid] gave a melting point of 115.5 to 116.5 °C.
Take `CC(C)CCN([C@@H](C(=O)NO)C(C)(C)C)S(=O)(=O)c1cccc(Cl)c1` [Example 2-4]: the IC50 was 1700 nM against MMP02, 725 nM against MMP09, 17.5 nM on MMP12 and 95 nM on MMP13.
For the compound `COc1cccc(S(=O)(=O)N(CC(C)C)[C@@H](C(=O)NO)C(C)(C)C)c1` [Example 2-6], the IC50 at MMP02 worked out at 11100 nM; against MMP09 it was 1500 nM; against MMP12, 17.5 nM; against MMP13, 250 nM.
Turning to `CCc1cccc(S(=O)(=O)N(CCC(C)C)[C@@H](C(=O)NO)C(C)(C)C)c1` [Example 2-7], the IC50 was determined as 13900 nM against MMP02, 7830 nM on MMP09, 225 nM on MMP12 and 500 nM on MMP13.
In the same order, the values of `CC(=O)Nc1cccc(S(=O)(=O)N(CCC(C)C)[C@@H](C(=O)NO)C(C)(C)C)c1` [Example 2-13] are 10200 nM, 17400 nM, 35 nM and 1150 nM.
As for `CCOc1cccc(S(=O)(=O)N(CCC(C)C)[C@@H](C(=O)NO)C(C)C)c1` [Example 2-17], the IC50 against MMP02 is 28300 nM; at MMP09, 12500 nM; against MMP12, 226 nM; against MMP13, 2440 nM.
As to `COc1cccc(S(=O)(=O)N(Cc2ccccc2)[C@@H](C(=O)NO)C(C)(C)C)c1` [Example 2-23], the IC50 turned out to be 12500 nM against MMP02, 3500 nM at MMP09, 145 nM at MMP12 and 800 nM against MMP13.
For `COC(=O)CN([C@@H](C(=O)NO)C(C)(C)C)S(=O)(=O)c1cccc(OC)c1` [Example 2-26], in that order: 8750 nM, 3700 nM, 55 nM and 850 nM.
On to `COc1cccc(S(=O)(=O)N(CC(=O)N(C)C)[C@@H](C(=O)NO)C(C)(C)C)c1` [Example 2-27], for which the IC50 at MMP02 is ≥ 40300 nM; on MMP09 it was 22700 nM; against MMP12, 300 nM; against MMP13, 4950 nM.
Consider `CC(C)CCN([C@@H](C(=O)NO)C(C)(C)C)S(=O)(=O)c1cccc(N)c1` [Example 2-28], for which the IC50 is 3150 nM against MMP02, 3100 nM against MMP09, 50 nM against MMP12 and 1550 nM at MMP13.
In the same order, the values of `CC(C)CCN([C@@H](C(=O)NO)C(C)(C)C)S(=O)(=O)c1cccc(NC(=O)NC(C)C)c1` [Example 2-34] are 3700 nM, 6900 nM, 65 nM and 1200 nM.
Turning to `CCCN([C@@H](C(=O)NO)C(C)(C)C)S(=O)(=O)c1cccc(C(=O)NC)c1` [Example 2-38], the IC50 is > 30000 nM against MMP02, > 30000 nM at MMP09, 650 nM against MMP12 and 25500 nM against MMP13.
Turning to `CCCN([C@@H](C(=O)NO)C(C)(C)C)S(=O)(=O)c1cccc(C(=O)OC)c1` [Example 2-39], the IC50 against MMP02 was > 30000 nM; against MMP09, > 30000 nM; at MMP12, 400 nM; against MMP13 it was 6550 nM.
Turning to `CCNC(=O)Nc1cccc(S(=O)(=O)N(CCCN2CCCCC2)[C@@H](C(=O)NO)C(C)(C)C)c1` [Example 4-4], the IC50 on MMP02 was determined as 1350 nM; at MMP09, 900 nM; at MMP12, 1.5 nM; against MMP13 it was 50 nM.
For `COc1cccc(S(=O)(=O)N(CCCc2cccnc2)[C@@H](C(=O)NO)C(C)(C)C)c1` [Example 5], the IC50 against MMP02 stood at 7700 nM; at MMP09, 400 nM; against MMP12, 5.5 nM; at MMP13 it was 70 nM.
For `COc1cccc(S(=O)(=O)N(CCO)[C@@H](C(=O)NO)C(C)(C)C)c1` [Example 6], in that order: 3000 nM, 300 nM, 2 nM and 30 nM.
